Assay results from PubChem BioAssay (NCI).
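Step 1: Grow cells in 96-well plates. Step 2: Expose to compound for 48 hours at 5 concentrations. Step 3: Interpolate endpoints linearly; if unreached, use highest concentration. TGI: concentration producing complete growth inhibition.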

What was measured:
Experiment in all cases: DTP human tumour cell line panel, 48 h
KM12 colon = system: KM12 colon
SK-OV-3 ovarian = system: SK-OV-3 ovarian
OVCAR-4 ovarian = system: OVCAR-4 ovarian
SW-620 colon = system: SW-620 colon
A549 NSCLC = system: A549 NSCLC
CAKI-1 renal = system: CAKI-1 renal
NCI-H522 lung = system: NCI-H522 lung
LOX IMVI melanoma = system: LOX IMVI melanoma
RPMI-8226 leukemia = system: RPMI-8226 leukemia
DU-145 prostate = system: DU-145 prostate
TK-10 renal = system: TK-10 renal
SK-MEL-2 melanoma = system: SK-MEL-2 melanoma
SK-MEL-28 melanoma = system: SK-MEL-28 melanoma
HT29 colon = system: HT29 colon
NCI-H226 lung = system: NCI-H226 lung
A498 renal = system: A498 renal
MOLT-4 leukemia = system: MOLT-4 leukemia
CCRF-CEM leukemia = system: CCRF-CEM leukemia
HS 578T breast = system: HS 578T breast
HCC-2998 colon = system: HCC-2998 colon
HL-60(TB) leukemia = system: HL-60(TB) leukemia
OVCAR-8 ovarian = system: OVCAR-8 ovarian
HOP-92 NSCLC = system: HOP-92 NSCLC
SF-539 CNS = system: SF-539 CNS
EKVX NSCLC = system: EKVX NSCLC
BT-549 breast = system: BT-549 breast
T-47D breast = system: T-47D breast
HCT-15 colon = system: HCT-15 colon
MALME-3M melanoma = system: MALME-3M melanoma
OVCAR-3 ovarian = system: OVCAR-3 ovarian
UO-31 renal = system: UO-31 renal
SNB-75 CNS = system: SNB-75 CNS
NCI/ADR-RES ovarian = system: NCI/ADR-RES ovarian
SF-268 CNS = system: SF-268 CNS
NCI-H460 lung = system: NCI-H460 lung
IGROV1 ovarian = system: IGROV1 ovarian
MDA-MB-231 breast = system: MDA-MB-231 breast
786-0 renal = system: 786-0 renal
COLO 205 colon = system: COLO 205 colon
M14 melanoma = system: M14 melanoma
MCF7 breast = system: MCF7 breast
MDA-MB-435 = system: MDA-MB-435
SF-295 CNS = system: SF-295 CNS
HCT-116 colon = system: HCT-116 colon
SK-MEL-5 melanoma = system: SK-MEL-5 melanoma
NCI-H23 lung = system: NCI-H23 lung
ACHN renal = system: ACHN renal
SN12C renal = system: SN12C renal
SNB-19 CNS = system: SNB-19 CNS
U251 CNS = system: U251 CNS
PC-3 prostate = system: PC-3 prostate
UACC-257 melanoma = system: UACC-257 melanoma
UACC-62 melanoma = system: UACC-62 melanoma
OVCAR-5 ovarian = system: OVCAR-5 ovarian
MDA-N = system: MDA-N
SR leukemia = system: SR leukemia
K-562 leukemia = system: K-562 leukemia
RXF 393 renal = system: RXF 393 renal
HOP-62 NSCLC = system: HOP-62 NSCLC

Measured: TGI

CCC12CCCN3CCc4c(n(c5ccccc45)C(O)(C(=O)OC)C1)C32 (stereo not given)
not listed: SR leukemia | K-562 leukemia | RXF 393 renal | HOP-62 NSCLC
> 100 µM: all other assays above

COc1cccc(C2c3cc4c(cc3OC(NNc3ccccc3)C2C)OCO4)c1O (stereo not given)
23.2 µM: 786-0 renal
24.7 µM: SK-MEL-28 melanoma
10.5 µM: SF-295 CNS
25.7 µM: SK-MEL-2 melanoma
27.9 µM: MDA-MB-231 breast
17.9 µM: UACC-62 melanoma
27.1 µM: OVCAR-5 ovarian
8.14 µM: HOP-62 NSCLC
27.5 µM: LOX IMVI melanoma
9.87 µM: SF-539 CNS
42.4 µM: SF-268 CNS
20.4 µM: BT-549 breast
28.2 µM: A498 renal
47.4 µM: SNB-75 CNS
19.6 µM: MCF7 breast
6.47 µM: HCC-2998 colon
18.7 µM: U251 CNS
12.9 µM: HL-60(TB) leukemia
15.5 µM: NCI-H460 lung | ACHN renal
8.36 µM: OVCAR-3 ovarian
11.9 µM: K-562 leukemia
23.8 µM: COLO 205 colon
25.5 µM: SW-620 colon | IGROV1 ovarian
17.3 µM: TK-10 renal
18 µM: HCT-116 colon
32.4 µM: SNB-19 CNS
19.1 µM: MALME-3M melanoma | PC-3 prostate
18.9 µM: DU-145 prostate
22.6 µM: RPMI-8226 leukemia
23.3 µM: CAKI-1 renal | HT29 colon
29.6 µM: NCI-H226 lung | RXF 393 renal
31.1 µM: T-47D breast
17.7 µM: UACC-257 melanoma
8.59 µM: MDA-N
34.5 µM: HS 578T breast
12.5 µM: MDA-MB-435
28 µM: NCI-H23 lung
16.6 µM: UO-31 renal
19.3 µM: M14 melanoma
23.5 µM: MOLT-4 leukemia | SN12C renal
28.5 µM: HOP-92 NSCLC
12 µM: HCT-15 colon
6.28 µM: SR leukemia
18.3 µM: KM12 colon
21.1 µM: OVCAR-8 ovarian
58.4 µM: SK-OV-3 ovarian
21.7 µM: CCRF-CEM leukemia
22.1 µM: EKVX NSCLC
19.2 µM: A549 NSCLC
20 µM: SK-MEL-5 melanoma
14.4 µM: NCI-H522 lung

CC1(C)SC2C(NC(=O)C(C(=O)O)c3ccccc3)C(=O)N2C1C(=O)O (stereo not given)
not listed: OVCAR-4 ovarian | A549 NSCLC | NCI-H522 lung | HCC-2998 colon | HOP-92 NSCLC | NCI-H460 lung | SR leukemia
> 100 µM: all other assays above

O=C1c2ccccc2-c2c1c(-c1ccc(O)cc1O)nc1ccc3ccccc3c21
75.2 µM: HS 578T breast
not listed: NCI-H522 lung | LOX IMVI melanoma | TK-10 renal | HL-60(TB) leukemia | HOP-92 NSCLC | OVCAR-3 ovarian | IGROV1 ovarian | SK-MEL-5 melanoma | SR leukemia | RXF 393 renal
> 100 µM: all other assays above

O=C1NC(N/N=C/c2c[nH]c3ccccc23)=N/C1=C\c1cccs1
71.9 µM: A498 renal
60.6 µM: HL-60(TB) leukemia
77.3 µM: OVCAR-3 ovarian
not listed: HCC-2998 colon | SR leukemia
> 100 µM: all other assays above
